Assay results reported in publication PMC3199943, “Screening the MayBridge Rule of 3 Fragment Library for Compounds That Interact with the Trypanosoma brucei myo-Inositol-3-Phosphate Synthase and/or Show Trypanocidal Activity” (Molecular Biology International, 2011).
Counter-ions that a name gives are not always drawn. Like-named read-outs stand apart in the source and are kept apart here.

What was measured:
A549 cells = test: Cytotoxicity against A549 cells, Alamar Blue; format: cell-based; conditions: Supplementary Table 1, compound 0.5 mM, percentage of controls (n=1); for viability at 500 µM: Homo sapiens, A549, 65 h
Procedure, shortened: (§1)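 Alamar Blue read-out after a 5 h dye incubation that followed ~65 h compound exposure. Cells: HeLa or A549, 2 × 10^4/well, DMEM + 10% FCS + 2 mM L-Glutamine.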

TbINO1 = molecular target: T1, TbINO1 (Trypanosoma brucei brucei, UniProt Q5QQ46); test: biochemical; format: binding; conditions: for Tb Ino1 Tm Shift [˚C]: Supplementary Table 1, compound 1mM, mean ± SD from Boltzman curve fitting
T1 sequence (Q5QQ46 1-528): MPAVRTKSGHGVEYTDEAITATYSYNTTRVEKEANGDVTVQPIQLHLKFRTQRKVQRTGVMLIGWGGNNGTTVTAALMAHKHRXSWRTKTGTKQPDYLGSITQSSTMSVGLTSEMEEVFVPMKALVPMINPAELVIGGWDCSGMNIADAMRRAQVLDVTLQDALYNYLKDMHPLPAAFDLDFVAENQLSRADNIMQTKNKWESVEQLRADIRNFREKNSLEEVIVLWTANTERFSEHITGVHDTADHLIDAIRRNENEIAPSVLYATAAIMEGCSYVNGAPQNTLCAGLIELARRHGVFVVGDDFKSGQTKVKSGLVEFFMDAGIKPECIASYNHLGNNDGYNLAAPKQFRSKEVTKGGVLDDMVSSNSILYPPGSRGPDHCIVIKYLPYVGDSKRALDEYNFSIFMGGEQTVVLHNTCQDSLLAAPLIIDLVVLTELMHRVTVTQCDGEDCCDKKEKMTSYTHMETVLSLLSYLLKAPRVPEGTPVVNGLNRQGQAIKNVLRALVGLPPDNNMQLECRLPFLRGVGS

HeLa cells = test: cells; conditions: for viability at 500 µM: Homo sapiens, HeLa, 65 h; for HeLa Cells Alamar Blue: Supplementary Table 1, compound 0.5 mM, percentage of controls, mean ± SD (n=3) or SE (n=2)
Procedure, shortened: as §1

[1] = read-out: Tb Ino1 Tm Shift [˚C]
[2] = read-out: HeLa Cells Alamar Blue
[3] = read-out: HeLa Cells Alamar Blue (% survival)

SMILES	viability at 500 µM (A549 cells)	ΔTm at 1000 µM (TbINO1; [1])	viability at 500 µM (HeLa cells; [2])	ΔTm at 1000 µM (TbINO1; read-out: TbIno1 Tm shift [°C])	viability at 500 µM (HeLa cells; [3])	A549 Cells Alamar Blue (A549 cells)	Tb Ino1 Tm Shift [˚C] (TbINO1)	HeLa Cells Alamar Blue (HeLa cells)
Cc1nc(C(C)(C)C)cs1 [compound 229, 4‐(tert‐butyl)‐2‐methyl‐1,3‐thiazole]	65.6%	0.23 ± 0.07 °C	108 ± 11.8%	–	–	–	–	–
NCc1ccc(-n2cccn2)cc1 [compound 378, 4‐(1H‐pyrazol‐1‐yl)benzylamine]	95.9%	0.19 ± 0.06 °C	101 ± 8.3%	–	–	–	–	–
CCCc1nccs1 [compound 82, 2‐propyl‐1,3‐thiazole]	114%	0.22 ± 0.07 °C	96.8 ± 11%	–	–	–	–	–
Cc1nc(-c2ccc(C#N)cc2)cs1 [compound 625, 4‐(2‐methyl‐1,3‐thiazol‐4‐yl)benzonitrile]	79.4%	1.06 ± 0.07 °C	74.1 ± 7.1%	–	–	–	–	–
Nc1cccc(N2CCOCC2)c1 [compound 441, 3‐morpholin‐4‐ylaniline]	85%	0.27 ± 0.08 °C	77.7 ± 16.7%	–	–	–	–	–
NCc1ccc(-c2ccco2)cc1 [compound 373, [4‐(2‐furyl)phenyl]methylamine]	63.4%	0.48 ± 0.05 °C	82.5 ± 14.3%	–	–	–	–	–
OCc1ccccc1Cl [compound 143, (2‐chlorophenyl)methanol]	109%	0.46 ± 0.05 °C	93.3 ± 6.6%	–	–	–	–	–
Cc1csc2ncnc(Cl)c12 [compound 486, 4‐chloro‐5‐methylthieno[2,3‐d]pyrimidine]	111%	0.24 ± 0.07 °C	101 ± 12.2%	–	–	–	–	–
Cc1ccc(C(=O)O)c(N)c1 [compound 196, 2‐amino‐4‐methylbenzoic acid]	36.7%	1.1 ± 0.06 °C	97.4 ± 4.1%	–	–	–	–	–
Cn1ccc(N)n1 [compound 8, 1‐methyl‐1H‐pyrazol‐3‐amine]	122%	0.09 ± 0.07 °C	107 ± 7.8%	–	–	–	–	–
COC(=O)c1ccc(C)c(Cl)c1 [compound 484, methyl 3‐chloro‐4‐methylbenzoate]	120%	0.1 ± 0.07 °C	112 ± 12%	–	–	–	–	–
Nc1ccc2ncsc2c1 [compound 191, 1,3‐benzothiazol‐6‐amine]	38%	0.44 ± 0.11 °C	76.3 ± 15.1%	–	–	–	–	–
OCc1csc(-c2cccnc2)n1 [compound 566, (2‐pyridin‐3‐yl‐1,3‐thiazol‐4‐yl)methanol]	104%	0.29 ± 0.07 °C	88.4 ± 18.2%	–	–	–	–	–
CCC1CCC(N)CC1 (stereo not drawn) [compound 84, 4‐ethylcyclohexanamine]	118%	0.44 ± 0.06 °C	90.7 ± 14.2%	–	–	–	–	–
Cc1csc(CC#N)n1 [compound 126, 2-(4-methyl-1,3-thiazol-2-yl)acetonitrile]	98.4%	–	69.7 ± 10.3%	2.1 ± 0.09 °C	69.7 ± 10.3%	–	–	–
Cc1ccc(CN)cc1Cl [compound 233, 3‐chloro‐4‐methylbenzylamine]	163%	0.11 ± 0.08 °C	91.7 ± 12.6%	–	–	–	–	–
CC1CCN(CC(C)(C)N)CC1 [compound 349, 2‐methyl‐1‐(4‐methylpiperidino)‐2‐propanamine]	–	–	–	–	–	144.1 percentage of controls	0.53 ± 0.06 °C	108.4 ± 7.2 percentage of controls
c1cncc(-n2cccc2)c1 [compound 151, 3‐(1H‐pyrrol‐1‐yl)pyridine]	90.1%	0.43 ± 0.06 °C	90.3 ± 6%	–	–	–	–	–

SMILES	viability at 500 µM (A549 cells)	ΔTm at 1000 µM (TbINO1; [1])	viability at 500 µM (HeLa cells; [2])	ΔTm at 1000 µM (TbINO1; read-out: TbIno1 Tm shift [°C])	viability at 500 µM (HeLa cells; [3])	A549 Cells Alamar Blue (A549 cells)	Tb Ino1 Tm Shift [˚C] (TbINO1)	HeLa Cells Alamar Blue (HeLa cells)
c1ccc2c(c1)CCOC2 [compound 110, 3,4‐dihydro‐1H‐benzo[c]pyran]	114%	0.34 ± 0.06 °C	88.7 ± 19.2%	–	–	–	–	–
O=C(O)c1ccc2ncsc2c1 [compound 444, 1,3‐benzothiazole‐6‐carboxylic acid]	63.5%	0.73 ± 0.06 °C	92 ± 9.7%	–	–	–	–	–
CC(=O)c1ccc(S(C)(=O)=O)cc1 [compound 604, 1‐[4‐(methylsulfonyl)phenyl]ethan‐1‐one]	63.9%	0.18 ± 0.06 °C	83.1 ± 19.6%	–	–	–	–	–
COC(=O)c1ccoc1C [compound 132, methyl 2-methyl-3-furoate]	100%	–	71.3 ± 11.3%	1.64 ± 0.09 °C	71.3 ± 11.3%	–	–	–
OCc1cccc2c1OCC2 [compound 186, 2,3-Dihydrobenzo[b]furan-7-methanol]	41.8%	–	86.5 ± 14.8%	4.09 ± 0.09 °C	86.5 ± 14.8%	–	–	–
NCc1cccc(CN2CCCC2)c1 [compound 550, [3‐(1‐pyrrolidinylmethyl)phenyl]methanamine]	–	–	–	–	–	108.7 percentage of controls	0.03 ± 0.07 °C	47.8 ± 11.7 percentage of controls
NCc1csc(-c2cccs2)n1 [compound 599, [2‐(2‐thienyl)‐1,3‐thiazol‐4‐yl]methylamine]	–	–	–	–	–	98.4 percentage of controls	0.41 ± 0.06 °C	71.9 ± 7.1 percentage of controls
Nc1ccc2c(c1)CCCC2=O [compound 280, 6‐amino‐1,2,3,4‐tetrahydronaphthalen‐1‐one]	–	–	–	–	–	87.3 percentage of controls	0.82 ± 0.09 °C	40.5 ± 19.2 percentage of controls
NCc1ccoc1 [compound 5, 3‐furylmethylamine]	113%	0.3 ± 0.06 °C	101 ± 5.3%	–	–	–	–	–
Cl.NCc1ccc2c(c1)CCO2 [compound 496, 2,3‐dihydrobenzo[b]furan‐5‐ylmethylamine hydrochloride]	–	–	–	–	–	96.7 percentage of controls	0.06 ± 0.08 °C	99.8 ± 15.5 percentage of controls
Cc1[nH]c2ccc(C(=O)O)cc2c1C [compound 537, 2,3‐dimethyl‐1H‐indole‐5‐carboxylic acid]	74.5%	0.7 ± 0.08 °C	89.3 ± 2.4%	–	–	–	–	–
Cc1ccc2cc(C(=O)O)ccc2n1 [compound 510, 2‐methyl‐6‐quinolinecarboxylic acid]	126%	0.12 ± 0.08 °C	117 ± 10.8%	–	–	–	–	–
Cc1nc(-c2ccccc2)c(CO)s1 [compound 666, (2‐methyl‐4‐phenyl‐1,3‐thiazol‐5‐yl)methanol]	–	–	–	–	–	113.4 percentage of controls	0.08 ± 0.05 °C	95.3 ± 5 percentage of controls
NC(=S)N1CCOCC1 [compound 159, morpholine‐4‐carbothioamide]	109%	0.21 ± 0.05 °C	93.8 ± 9.3%	–	–	–	–	–
Cc1nc(-c2ccc(CO)cc2)cs1 [compound 667, [4‐(2‐methyl‐1,3‐thiazol‐4‐yl)phenyl]methanol]	–	–	–	–	–	103.8 percentage of controls	0.4 ± 0.07 °C	76.7 ± 4.3 percentage of controls
CC(=O)Oc1ccc(C)c2c1CCC2 [compound 541, 7‐methyl‐2,3‐dihydro‐1H‐inden‐4‐yl acetate]	–	–	–	–	–	93.1 percentage of controls	0.01 ± 0.07 °C	79.8 ± 6.6 percentage of controls
O=C(O)Cc1cccnc1 [compound 381, pyridin‐3‐ylacetic acid hydrochloride]	105%	1.08 ± 0.05 °C	99.2 ± 9.9%	–	–	–	–	–
